pIC50: −log10 of the molar value. Structures can show the parent of a compound that is named as a salt.
Assays:
human αVβ6 Integrin = target: T1, human αVβ6 Integrin (Homo sapiens, UniProt P06756+P18564); assay: human αVβ6 HTRF binding assay
T1 construct: purchased R & D systems 3817-AV
Experimental: (§1) All binding assays used the HTRF (homogeneous time resolved fluorescence) technology from Cisbio International, therefore all assays are described as HTRF binding assays. The assay results for the Examples are listed above together with the characterization data. The HTRF binding assays are established for the following integrins: human αVβ6, human αVβ1, human αVβ3, human αVβ5, and human αVβ8. All assays used the following assay buffer: 20 mM Tris, pH 7.4, 1 mM MgCl2, 1 mM MnCl2, 0.01% Tween 20, and 0.01% BSA. Alternatively, a SPA-based assay was used for evaluation of receptor binding.
(§2) The following describes the components and a representative procedure for the human αVβ6 HTRF binding assay: Recombinant human αVβ6 Integrin (R & D systems, 3817-AV) was biotinylated. Biotinylated human αVβ6 Integrin was added to assay vessel at a final concentration of 1.25 nM. FITC-conjugated fibronectin (Cytoskeleton, FNR02) was then added at the final concentration of 5 nM. The mixture was centrifuged at 600 rpm for three minutes using Thermo Fisher Heraeus Multifuge X3 centrifuge and then incubated at RT for an hour. Streptavidin Terbium (Cisbio international 610STLB) was then added at the final concentration of 0.625 nM. The resulting mixture was centrifuged at 600 rpm for three minutes using Thermo Fisher Heraeus Multifuge X3 centrifuge and then incubated at room temperature overnight in dark before reading HTRF signals.

human αVβ1 = human αVβ1 (Homo sapiens, UniProt P05556+P06756); assay: human αVβ1 HTRF binding assay
Sequence of human αVβ1 (P06756 31-992 limits assumed): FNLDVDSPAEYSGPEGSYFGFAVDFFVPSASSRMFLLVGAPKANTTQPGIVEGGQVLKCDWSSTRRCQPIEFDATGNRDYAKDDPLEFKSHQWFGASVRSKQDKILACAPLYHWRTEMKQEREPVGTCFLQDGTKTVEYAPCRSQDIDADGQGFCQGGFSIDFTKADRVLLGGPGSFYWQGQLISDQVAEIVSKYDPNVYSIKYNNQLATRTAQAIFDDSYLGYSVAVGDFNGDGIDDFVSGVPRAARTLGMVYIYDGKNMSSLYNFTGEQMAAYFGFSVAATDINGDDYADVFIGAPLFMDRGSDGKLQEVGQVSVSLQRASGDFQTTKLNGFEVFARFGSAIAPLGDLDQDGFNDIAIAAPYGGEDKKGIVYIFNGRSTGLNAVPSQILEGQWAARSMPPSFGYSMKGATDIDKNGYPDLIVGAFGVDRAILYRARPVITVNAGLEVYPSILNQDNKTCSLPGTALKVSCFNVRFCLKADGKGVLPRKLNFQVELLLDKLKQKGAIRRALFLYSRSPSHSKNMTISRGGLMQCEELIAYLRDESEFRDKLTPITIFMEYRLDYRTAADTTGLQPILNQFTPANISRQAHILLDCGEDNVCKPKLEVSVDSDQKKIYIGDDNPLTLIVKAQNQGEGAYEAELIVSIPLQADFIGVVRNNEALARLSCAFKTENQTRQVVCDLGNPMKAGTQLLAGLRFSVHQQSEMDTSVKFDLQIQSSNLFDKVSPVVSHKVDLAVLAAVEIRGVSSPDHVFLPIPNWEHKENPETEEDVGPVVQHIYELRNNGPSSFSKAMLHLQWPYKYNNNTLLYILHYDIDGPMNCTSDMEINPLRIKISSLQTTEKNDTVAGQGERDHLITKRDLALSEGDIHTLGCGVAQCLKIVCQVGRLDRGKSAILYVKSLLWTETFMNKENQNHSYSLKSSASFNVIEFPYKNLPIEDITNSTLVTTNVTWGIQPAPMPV
Sequence of human αVβ1 (P05556 21-728 limits assumed): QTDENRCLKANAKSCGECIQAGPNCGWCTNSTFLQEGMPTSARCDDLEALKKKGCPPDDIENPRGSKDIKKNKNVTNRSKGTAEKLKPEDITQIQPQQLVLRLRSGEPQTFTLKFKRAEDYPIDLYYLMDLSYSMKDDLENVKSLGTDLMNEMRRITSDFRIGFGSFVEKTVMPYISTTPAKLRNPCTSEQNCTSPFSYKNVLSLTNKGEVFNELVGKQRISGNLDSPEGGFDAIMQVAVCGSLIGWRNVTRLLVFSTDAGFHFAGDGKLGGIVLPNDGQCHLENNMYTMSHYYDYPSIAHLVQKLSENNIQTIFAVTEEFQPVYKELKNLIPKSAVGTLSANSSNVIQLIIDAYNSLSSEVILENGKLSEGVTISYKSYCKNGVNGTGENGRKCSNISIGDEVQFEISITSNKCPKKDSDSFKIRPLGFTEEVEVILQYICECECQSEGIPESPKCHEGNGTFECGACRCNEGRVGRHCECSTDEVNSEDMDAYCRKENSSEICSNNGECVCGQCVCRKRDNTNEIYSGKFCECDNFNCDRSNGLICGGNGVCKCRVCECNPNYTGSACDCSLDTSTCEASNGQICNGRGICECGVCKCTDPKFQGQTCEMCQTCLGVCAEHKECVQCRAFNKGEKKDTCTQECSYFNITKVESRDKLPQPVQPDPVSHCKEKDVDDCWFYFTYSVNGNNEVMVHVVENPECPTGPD
Experimental: as §1, §2

human αVβ3 = human αVβ3 (Homo sapiens, UniProt P05106+P06756); assay: human αVβ3 HTRF binding assay
Sequence of human αVβ3 (P06756 31-992 limits assumed): as the sequence (P06756 31-992 limits assumed) above
Sequence of human αVβ3 (P05106 27-718 limits assumed): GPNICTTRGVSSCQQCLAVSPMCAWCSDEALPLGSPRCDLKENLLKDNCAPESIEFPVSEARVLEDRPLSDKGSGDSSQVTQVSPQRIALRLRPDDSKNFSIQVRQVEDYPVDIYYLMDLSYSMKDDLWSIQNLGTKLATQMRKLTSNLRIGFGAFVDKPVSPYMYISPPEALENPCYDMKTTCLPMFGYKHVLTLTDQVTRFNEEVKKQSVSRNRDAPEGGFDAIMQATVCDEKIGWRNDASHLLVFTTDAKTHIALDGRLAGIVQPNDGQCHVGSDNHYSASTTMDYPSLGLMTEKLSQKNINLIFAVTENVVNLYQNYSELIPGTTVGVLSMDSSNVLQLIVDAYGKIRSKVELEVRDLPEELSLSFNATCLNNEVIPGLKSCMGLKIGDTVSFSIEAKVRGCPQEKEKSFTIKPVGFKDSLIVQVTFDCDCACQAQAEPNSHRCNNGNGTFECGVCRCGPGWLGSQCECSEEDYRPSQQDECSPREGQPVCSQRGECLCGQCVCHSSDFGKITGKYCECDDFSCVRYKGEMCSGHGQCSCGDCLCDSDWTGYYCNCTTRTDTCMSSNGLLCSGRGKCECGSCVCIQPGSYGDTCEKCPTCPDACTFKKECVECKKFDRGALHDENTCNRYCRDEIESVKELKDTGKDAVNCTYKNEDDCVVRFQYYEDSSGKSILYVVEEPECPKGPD
Experimental: as §1, §2

human αVβ5 = human αVβ5 (Homo sapiens, UniProt P06756+P18084); assay: human αVβ5 HTRF binding assay
Sequence of human αVβ5 (P06756 31-992 limits assumed): as the sequence (P06756 31-992 limits assumed) above
Sequence of human αVβ5 (P18084 24-719 limits assumed): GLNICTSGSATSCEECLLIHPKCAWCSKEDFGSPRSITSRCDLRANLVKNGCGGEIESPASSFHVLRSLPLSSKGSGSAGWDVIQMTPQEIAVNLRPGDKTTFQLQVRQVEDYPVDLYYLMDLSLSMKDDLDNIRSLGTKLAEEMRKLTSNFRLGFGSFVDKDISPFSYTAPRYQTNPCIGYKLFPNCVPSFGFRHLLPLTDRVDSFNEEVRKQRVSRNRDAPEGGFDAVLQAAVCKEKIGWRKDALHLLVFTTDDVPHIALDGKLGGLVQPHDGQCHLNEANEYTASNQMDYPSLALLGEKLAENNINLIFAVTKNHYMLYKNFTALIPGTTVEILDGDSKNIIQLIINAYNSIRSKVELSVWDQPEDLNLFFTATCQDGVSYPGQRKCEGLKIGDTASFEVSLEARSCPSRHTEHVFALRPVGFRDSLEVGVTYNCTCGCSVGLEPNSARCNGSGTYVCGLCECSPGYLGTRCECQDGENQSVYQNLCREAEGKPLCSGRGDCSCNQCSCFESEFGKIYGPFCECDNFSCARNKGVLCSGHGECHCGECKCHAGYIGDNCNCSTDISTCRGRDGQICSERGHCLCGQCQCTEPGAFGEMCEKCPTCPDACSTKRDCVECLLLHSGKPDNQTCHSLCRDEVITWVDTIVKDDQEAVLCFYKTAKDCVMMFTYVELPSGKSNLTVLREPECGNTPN
Experimental: as §1, §2

human αVβ8 = human αVβ8 (Homo sapiens, UniProt P06756+P26012); assay: human αVβ8 HTRF binding assay
Sequence of human αVβ8 (P06756 31-992 limits assumed): as the sequence (P06756 31-992 limits assumed) above
Sequence of human αVβ8 (P26012 43-684 limits assumed): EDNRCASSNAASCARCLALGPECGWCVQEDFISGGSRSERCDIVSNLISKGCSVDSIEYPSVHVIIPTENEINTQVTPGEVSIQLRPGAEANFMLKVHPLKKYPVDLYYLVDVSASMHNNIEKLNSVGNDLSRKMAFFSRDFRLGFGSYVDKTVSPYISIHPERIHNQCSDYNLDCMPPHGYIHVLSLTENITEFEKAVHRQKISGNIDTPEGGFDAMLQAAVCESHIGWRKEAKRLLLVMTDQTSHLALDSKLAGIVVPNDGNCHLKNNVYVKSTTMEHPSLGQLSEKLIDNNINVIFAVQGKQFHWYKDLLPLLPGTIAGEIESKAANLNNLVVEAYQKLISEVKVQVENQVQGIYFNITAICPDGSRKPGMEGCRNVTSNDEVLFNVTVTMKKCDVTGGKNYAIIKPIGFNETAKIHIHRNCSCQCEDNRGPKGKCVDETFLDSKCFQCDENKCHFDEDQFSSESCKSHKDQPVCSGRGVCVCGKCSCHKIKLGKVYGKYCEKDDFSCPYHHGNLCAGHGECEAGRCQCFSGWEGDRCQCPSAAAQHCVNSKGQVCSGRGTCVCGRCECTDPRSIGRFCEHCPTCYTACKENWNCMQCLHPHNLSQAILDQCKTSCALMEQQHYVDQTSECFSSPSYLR
Experimental: as §1, §2

T1 sequence (P06756 31-992 limits assumed): as the sequence (P06756 31-992 limits assumed) above
T1 sequence (P18564 22-707 limits assumed): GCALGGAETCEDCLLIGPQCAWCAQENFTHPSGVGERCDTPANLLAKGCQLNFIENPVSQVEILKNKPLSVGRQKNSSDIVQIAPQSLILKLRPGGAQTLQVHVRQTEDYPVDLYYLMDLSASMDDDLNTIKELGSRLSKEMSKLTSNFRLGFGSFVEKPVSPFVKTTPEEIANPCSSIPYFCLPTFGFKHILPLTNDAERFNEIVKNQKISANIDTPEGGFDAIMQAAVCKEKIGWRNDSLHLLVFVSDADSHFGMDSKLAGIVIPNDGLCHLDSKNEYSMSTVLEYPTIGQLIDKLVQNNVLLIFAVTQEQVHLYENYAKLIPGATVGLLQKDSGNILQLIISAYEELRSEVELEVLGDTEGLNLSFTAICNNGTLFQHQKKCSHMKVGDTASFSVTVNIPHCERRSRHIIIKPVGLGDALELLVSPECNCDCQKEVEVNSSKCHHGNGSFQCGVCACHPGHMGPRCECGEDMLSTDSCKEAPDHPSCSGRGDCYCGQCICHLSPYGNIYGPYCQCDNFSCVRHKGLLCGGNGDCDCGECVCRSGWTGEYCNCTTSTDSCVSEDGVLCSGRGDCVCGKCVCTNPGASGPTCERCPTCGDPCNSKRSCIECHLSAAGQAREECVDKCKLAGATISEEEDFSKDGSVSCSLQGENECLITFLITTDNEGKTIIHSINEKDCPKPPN

Structure (SMILES)	pIC50 (human αVβ6 Integrin)	pIC50 (human αVβ1)	pIC50 (human αVβ3)	pIC50 (human αVβ5)	pIC50 (human αVβ8)
COc1ccc([C@H](CC(=O)O)NC(=O)c2cc(CCC3CCc4cccnc4N3)c[nH]2)cc1F (mixture of isomers) [Example 2, (3S)-3-(3-Fluoro-4-methoxyphenyl)-3-(4-(2-(1,2,3,4-tetrahydro-1,8-naphthyridin-2-yl)ethyl)-1H-pyrrole-2-carboxamido)propanoic Acid]	8.43				
Cc1cc(C)c(S(=O)(=O)N[C@@H](CNC(=O)c2cc(CCC3CCc4cccnc4N3)c[nH]2)C(=O)O)c(C)c1 (mixture of isomers) [Example 24, (2S)-3-(4-(2-(1,2,3,4-Tetrahydro-1,8-naphthyridin-2-yl)ethyl)-1H-pyrrole-2-carboxamido)-2-((2,4,6-trimethylphenyl)sulfonamido)propanoic Acid]	9.21	8.52	8.70	9.64	7.93
COc1ccc([C@H](CC(=O)O)NC(=O)c2cc(CCc3ccc4c(n3)NCCC4)c[nH]2)cc1F [Example 1, (S)-3-(3-Fluoro-4-methoxyphenyl)-3-(4-(2-(5,6,7,8-tetrahydro-1,8-naphthyridin-2-yl)ethyl)-1H-pyrrole-2-carboxamido)propanoic Acid]	8.59				
COc1ccc([C@@H](CC(=O)O)NC(=O)c2cc(CCc3ccc4c(n3)NCCC4)c[nH]2)cc1F [Example 3]	6.64				
COc1ccc([C@H](CC(=O)O)NC(=O)c2cc(CCc3ccc4c(n3)NCCC4)cn2C)cc1F [Example 4]	7.66				
CCn1cc(CCc2ccc3c(n2)NCCC3)cc1C(=O)N[C@@H](CC(=O)O)c1ccc(OC)c(F)c1 [Example 5]	7.30				
COc1ccc([C@H](CC(=O)O)NC(=O)c2cc(CCc3ccc4c(n3)NCCC4)c(C)[nH]2)cc1F [Example 6]	8.23				
COc1ccc([C@H](CC(=O)O)NC(=O)c2cc(CCc3ccc4c(n3)NCCC4)c[nH]2)cn1 [Example 7]	8.40				
COc1ccc([C@H](CC(=O)O)NC(=O)c2cc(CCc3ccc4c(n3)NCCC4)cn2C)cn1 [Example 8]	7.65				
CCn1cc(CCc2ccc3c(n2)NCCC3)cc1C(=O)N[C@@H](CC(=O)O)c1ccc(OC)nc1 [Example 9]	7.33				
COc1ccc([C@H](CC(=O)O)NC(=O)c2cc(CCc3ccc4c(n3)NCCC4)c(C)[nH]2)cn1 [Example 10]	8.40		8.60	7.98	6.38
O=C(O)C[C@H](NC(=O)c1cc(CCc2ccc3c(n2)NCCC3)c[nH]1)c1cc(Cl)cc(Cl)c1 [Example 11]	8.69				
CC(C)(C)c1cc(Br)cc([C@H](CC(=O)O)NC(=O)c2cc(CCc3ccc4c(n3)NCCC4)c[nH]2)c1 [Example 12]	9.20				
Cc1ncc(C(CC(=O)O)NC(=O)c2cc(CCc3ccc4c(n3)NCCC4)c[nH]2)cn1 (stereo not shown) [Example 13]	8.17	5.40	8.34	8.42	
COc1ncc(C(CC(=O)O)NC(=O)c2cc(CCc3ccc4c(n3)NCCC4)c[nH]2)cn1 (stereo not shown) [Example 14]	8.14	5.43	8.33	8.25	
O=C(O)CC(NC(=O)c1cc(CCc2ccc3c(n2)NCCC3)c[nH]1)c1cncnc1 (stereo not shown) [Example 15]	7.93				
O=C(O)C[C@H](NC(=O)c1cc(CCc2ccc3c(n2)NCCC3)c[nH]1)c1cnc2ccccc2c1 [Example 16]	8.96	6.44	8.46	8.76	
O=C(O)C[C@H](NC(=O)c1cc(CCc2ccc3c(n2)NCCC3)c[nH]1)c1ccc2c(c1)OCC2 [Example 17]	8.33	5.91	8.43	9.07	5.42
O=C(O)CC(NC(=O)c1cc(CCc2ccc3c(n2)NCCC3)c[nH]1)c1cnc2ccccc2n1 (stereo not shown) [Example 18]	7.59				
COc1ccc([C@H](CC(=O)O)NC(=O)c2cc(-c3ccc4c(n3)NCCC4)c[nH]2)cc1F [Example 19]	7.09				
COc1ccc([C@H](CC(=O)O)NC(=O)c2cc(CCCc3ccc4c(n3)NCCC4)c[nH]2)cn1 [Example 20]	7.65				
Cc1ncc([C@H](CC(=O)O)NC(=O)c2cc(CCCc3ccc4c(n3)NCCC4)c[nH]2)cn1 [Example 21]	6.78				
COc1ncc([C@H](CC(=O)O)NC(=O)c2cc(CCCc3ccc4c(n3)NCCC4)c[nH]2)cn1 [Example 22]	7.84				
Cc1cc(C)c(S(=O)(=O)N[C@@H](CNC(=O)c2cc(CCc3ccc4c(n3)NCCC4)c[nH]2)C(=O)O)c(C)c1 [Example 23, (S)-3-(4-(2-(5,6,7,8-Tetrahydro-1,8-naphthyridin-2-yl)ethyl)-1H-pyrrole-2-carboxamido)-2-((2,4,6-trimethylphenyl)sulfonamido)propanoic Acid]	8.99		8.27	9.27	8.04
O=C(N[C@@H](CNC(=O)c1cc(CCc2ccc3c(n2)NCCC3)c[nH]1)C(=O)O)OCc1ccccc1 [Example 25, (S)-2-(((Benzyloxy)carbonyl)amino)-3-(4-(2-(5,6,7,8-tetrahydro-1,8-naphthyridin-2-yl)ethyl)-1H-pyrrole-2-carboxamido)propanoic Acid, TFA]	9.47		8.82	9.80	7.90
O=C(N[C@@H](CNC(=O)c1cc(CCc2ccc3c(n2)NCCC3)c[nH]1)C(=O)O)OC1CCCC1 [Example 26, (S)-2-(((Cyclopentyloxy)carbonyl)amino)-3-(4-(2-(5,6,7,8-tetrahydro-1,8-naphthyridin-2-yl)ethyl)-1H-pyrrole-2-carboxamido)propanoic Acid]	9.55		8.78	10.05	8.06

Source: patent publication US10717736B2, “Pyrrole amides as alpha V integrin inhibitors” (BRISTOL-MYERS SQUIBB COMPANY, priority 2016, dated 2020)
